Read-outs that look alike come from different tables or passages of the source.
What was measured:
[1] = test system: rat liver microsomes (RLMs); test: Michaelis-Menten kinetics of pyrotinib metabolism in RLMs; format: in vitro ADME, Sprague-Dawley (SD) rat; conditions: pyrotinib 0.5–25 μM in RLMs
Procedure: The rats were anesthetized with 10% chloral hydrate after 12 h of starvation. […] The rat liver tissue was then accurately removed and transferred to Petri dishes at 0–4°C. The tissues were homogenized in 0.15 mol/L KCl-PBS buffer and stored at 4°C. The homogenate (CR30NX, Eppendorf, Germany) was centrifuged at 9000 rpm at 4°C for 30 min. The supernatant was transferred to another tube and was centrifuged at 105000 rpm at 4°C for 60 min. The precipitate containing liver microsomes was removed and suspended in 0.15 mol/L KCl-PBS buffer (containing 0.25 mol/L sucrose) and stored at −80°C for later use. The liver microsomal concentration was 8.838 mg/ml after the determination with the BCA protein quantification kit (Thermo Scientific, Waltham, MA, United States). […]
GraphPad Prism 7.0 software (GraphPad Software Inc.) was used to calculate the enzyme kinetic parameters of substrates which include Vmax, Km, IC50, Ki, and αKi values. […] The PK characteristics, maximal plasma concentration (Cmax), time to peak plasma concentration (Tmax), apparent volume of distribution (Vz/F), area under the plasma concentration-time curve (AUC), elimination half-life (t1/2), plasma clearance (Cl/F), and mean residence time (MRT), were calculated using DAS (Drug and Statistics) software (Version 3.2.8, The People’s Hospital of Lishui, China). […]

[2] = In vivo pharmacokinetics of pyrotinib in rats with or without azole pretreatment; set-up: species or system Sprague-Dawley rats; conditions: rat; for AUC(0-inf) / AUC(0-t) / CL/F / Cmax / Vd/F: male, Sprague-Dawley, plasma, po, 8 mg/kg; for AUC(0-inf) / AUC(0-t) / CL/F / Cmax / Vd/F / MRT(0-t) / MRT(0-∞) / Tmax / t1/2: 8 mg/kg pyrotinib oral; for AUC(0-inf) / AUC(0-t) / CL/F / Cmax / MRT(0-t) / MRT(0-∞) / Tmax / t1/2: n = 6; for Vd/F: n = 6, read-out: Vz/F
Procedure: Male Sprague-Dawley rats (180–220 g) were supplied by the Experimental Animal Center of Wenzhou Medical University. The animals were placed in a controlled environment of 20–26°C and 55 ± 15% relative humidity under a 12 h light-dark cycle. Except for the 12-h fasting period before the PK study, all rats were fed a standard rodent diet and freely consumed tap water. All experimental procedures and protocols were reviewed and approved by the Animal Care and Use Committee of the Wenzhou Medical University (No. wydw 2019-650), following the Guidelines for The Care and Use of Laboratory Animals. […] After the last administration of the three azoles or 0.5% CMC-Na (control group), a single dose of 8 mg/kg pyrotinib was administered orally to all rats in each group. Each group consisted of 6 rats. The azole antifungal medication was dissolved in 0.5% carboxymethylcellulose sodium solution (CMC-Na). […] The plasma was obtained by centrifuging the blood samples at 4000 rpm for 10 min at 4°C and stored at −80°C until analysis. The frozen plasma samples were thawed at room temperature and uniformly mixed; 50 μL of plasma sample was removed and mixed with 150 μL acetonitrile-midazolam solution (containing midazolam 200 ng/ml) to precipitate the proteins, followed by vortexing for 30 s and centrifuging at 13,000 rpm for 5 min. Then 150 μL of the supernatant was collected and placed into UPLC vials with 2 μL of sample was subjected to UPLC-MS/MS analysis. GraphPad Prism 7.0 software (GraphPad Software Inc.) was used to calculate the enzyme kinetic parameters of substrates which include Vmax, Km, IC50, Ki, and αKi values. The enzyme inhibition mode was obtained using the Linear Lineweaver-Burk plots. The PK characteristics, maximal plasma concentration (Cmax), time to peak plasma concentration (Tmax), apparent volume of distribution (Vz/F), area under the plasma concentration-time curve (AUC), elimination half-life (t1/2), plasma clearance (Cl/F), and mean residence time (MRT), were calculated using DAS (Drug and Statistics) software (Version 3.2.8, The People’s Hospital of Lishui, China). The one-way ANOVA and a Dunnet’s multiple range test were used for the statistical comparisons within groups with SPSS software (Version 25.0; SPSS Inc.). Statistical significance was set at p < 0.05.

[3] = after 40 mg/kg fluconazole for 7 days
[4] = after 40 mg/kg itraconazole for 7 days
[5] = after 40 mg/kg ketoconazole for 7 days

## CCOc1cc2ncc(C#N)c(Nc3ccc(OCc4ccccn4)c(Cl)c3)c2cc1NC(=O)/C=C/[C@H]1CCCN1C [pyrotinib, Pyrotinib]
[1]
  Km: 4.09 µM
  Vmax: 58.33 pmol/min/mg protein
[2]; [3]
  AUC(0-inf): 29200 ng·h/mL
  AUC(0-t): 29100 ng·h/mL
  CL/F: 4.83 mL/min/kg
  Cmax: 4290 ng/mL
  Vd/F: 1.09 ± 0.21 L/kg
  MRT(0-t): 5.28 ± 0.24 H
  MRT(0-∞): 5.37 ± 0.27 H
  Tmax: 3.83 ± 0.41 H
  t1/2: 2.66 ± 0.15 H
[2]; [4]
  AUC(0-inf): 18000 ng·h/mL
  AUC(0-t): 18000 ng·h/mL
  CL/F: 7.5 mL/min/kg
  Cmax: 3000 ng/mL
  Vd/F: 1 ± 0.58 L/kg
  MRT(0-t): 4.55 ± 0.36 H
  MRT(0-∞): 4.56 ± 0.37 H
  Tmax: 4.00 ± 1.10 H
  t1/2: 1.47 ± 0.63 H
[2]; [5]
  AUC(0-inf): 36500 ng·h/mL
  AUC(0-t): 36300 ng·h/mL
  CL/F: 3.83 mL/min/kg
  Cmax: 4680 ng/mL
  Vd/F: 0.89 ± 0.24 L/kg
  MRT(0-t): 5.38 ± 0.38 H
  MRT(0-∞): 5.47 ± 0.38 H
  Tmax: 4.00 ± 1.10 H
  t1/2: 2.66 ± 0.20 H
[2]; control group (0.5% CMC-Na)
  AUC(0-inf): 17800 ng·h/mL
  AUC(0-t): 17800 ng·h/mL
  CL/F: 7.67 mL/min/kg
  Cmax: 3060 ng/mL
  Vd/F: 0.81 ± 0.25 L/kg
  MRT(0-t): 4.32 ± 0.40 H
  MRT(0-∞): 4.32 ± 0.42 H
  Tmax: 3.50 ± 1.23 H
  t1/2: 1.26 ± 0.54 H
[2]; coadministrated with ketoconazole
  decrease of Cl/F compared to the control group: approximately 50%
[2]; fluconazole group
  decrease of Cl/F compared with control group: 0.37 fold
  increase of AUC(0-t) compared with control group: 0.63 fold
  increase of Cmax compared with control group: 0.40 fold
[2]; ketoconazole group
  decrease of Cl/F compared with control group: 0.50 fold
  increase of AUC(0-t) compared with control group: 1.04 fold
  increase of Cmax compared with control group: 0.53 fold

Reference: PMC9490176 (Frontiers in Pharmacology, 2022)
